22 compounds from patent publication US9409884B2 (Rigel Pharmaceuticals, Inc., priority 2012, dated 2016) can be followed below.

Bounds are passed on as bounds.

The target of this experiment is AMPK. In words: AMPK activation, enzyme-linked immunosorbent assay. Format: biochemical. The conditions noted are these: Table 13, compounds of Table 6. A digest of the protocol: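 Read-out: ELISA, used to detect compound-driven activation of AMPK.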
By EC50 is commonly meant the midpoint of the concentration-response curve. The compound `CS(=O)(=O)c1ccc(CN2CCN(C(=O)c3ccc4cc(C(=O)Nc5ccc(Oc6ccc(C#N)cc6)nc5)oc4c3)CC2)cc1` [Compound 6-8, N-(6-(4-cyanophenoxy)pyridin-3-yl)-6-(4-(4-(methylsulfonyl)benzyl)piperazine-1-carbonyl) benzofuran-2-carboxamide] yielded an EC50 of under 100 nM.

Turning to `CS(=O)(=O)c1ccc(N2CCN(c3ccc4oc(C(=O)NC5CCN(Cc6ccc(C#N)cc6)CC5)cc4c3)CC2)cc1` [Compound 6-9, N-(1-(4-cyanobenzyl)piperidin-4-yl)-5-(4-(4-(methylsulfonyl)phenyl)piperazin-1-yl)benzofuran-2-carboxamide], the EC50 lay in the range of 100 to 1000 nM.

`CS(=O)(=O)c1ccc(CN2CCN(c3ccc4oc(C(=O)NC5CCN(Cc6ccc(C#N)cc6)CC5)cc4c3)CC2)cc1` [Compound 6-10, N-(1-(4-cyanobenzyl)piperidin-4-yl)-5-(4-(4-(methylsulfonyl)benzyl)piperazin-1-yl)benzofuran-2-carboxamide]: the EC50 is under 100 nM.

As for `N#Cc1ccc(CN2CCC(NC(=O)c3cc4cc(C(=O)N5CCN(Cc6ccc(F)cc6)CC5)ccc4o3)CC2)cc1` [Compound 6-11, N-(1-(4-cyanobenzyl)piperidin-4-yl)-5-(4-(4-fluorobenzyl)piperazine-1-carbonyl)benzofuran-2-carboxamide], the EC50 is under 100 nM.

`O=C(Nc1ccc(Oc2ccccc2)cc1)c1cc2cc(C(=O)N3CCN(Cc4ccc(F)cc4)CC3)ccc2o1` [Compound 6-12, 5-(4-(4-fluorobenzyl)piperazine-l-carbonyl)-N-(4-phenoxyphenyl)benzofuran-2-carboxamide] yielded an EC50 of under 100 nM.

For `N#Cc1ccc(CN2CCC(NC(=O)c3cc4cc(CN5CCN(Cc6ccc(F)cc6)CC5)ccc4o3)CC2)cc1` [Compound 6-13, N-(1-(4-cyanobenzyl)piperidin-4-yl)-5-((4-(4-fluorobenzyl)piperazin-1-yl)methyl)benzofuran-2-carboxamide], the EC50 is under 100 nM.

On to `N#Cc1ccc(CN2CCC(NC(=O)c3cc4cc(CN5CCC(Oc6ccc(C#N)cc6)CC5)ccc4o3)CC2)cc1` [Compound 6-14, N-(1-(4-cyanobenzyl)piperidin-4-yl)-5-((4-(4-cyanophenoxy)piperidin-1-yl)methyl)benzofuran-2-carboxamide], for which the EC50 was under 100 nM.

`O=C(NC1CCN(Cc2ccncc2)CC1)c1cc2cc(C(=O)N3CCC(C(=O)c4ccc(F)cc4)CC3)ccc2o1` [Compound 6-15, 5-(4-(4-fluorobenzoyl)piperidine-1-carbonyl)-N-(1-(pyridin-4-ylmethyl)piperidin-4-yl)benzofuran-2-carboxamide]: the EC50 lay in the range of 100 to 1000 nM.

With `N#Cc1ccc(CN2CCC(NC(=O)c3cc4cc(C(=O)N5CCC(C(=O)c6ccc(F)cc6)CC5)ccc4o3)CC2)cc1` [Compound 6-16, N-(1-(4-cyanobenzyl)piperidin-4-yl)-5-(4-(4-fluorobenzoyl)piperidine-1-carbonyl)benzofuran-2-carboxamide], the EC50 is under 100 nM.

In turn, `N#Cc1ccc(Oc2ccc(NC(=O)c3cc4cc(C(=O)N5CCC(C(=O)c6ccc(F)cc6)CC5)ccc4o3)cn2)cc1` [Compound 6-17, N-(6-(4-cyanophenoxy)pyridin-3-yl)-5-(4-(4-fluorobenzoyl)piperidine-1-carbonyl)benzofuran-2-carboxamide] yielded an EC50 of under 100 nM.

`O=C(NC1CCN(Cc2ccncc2)CC1)c1cc2cc(C(=O)N3CCC(Oc4ccc(F)cc4)CC3)ccc2o1` [Compound 6-18, 5-(4-(4-fluorophcnoxy)piperidine-1-carbonyl)-N-(1-(pyridin-4-ylmethyl)piperidin-4-yl)benzofuran-2-carboxamide] gave an EC50 of under 100 nM.

In turn, `N#Cc1ccc(CN2CCC(NC(=O)c3cc4cc(C(=O)N5CCC(Oc6ccc(F)cc6)CC5)ccc4o3)CC2)cc1` [Compound 6-19, N-(1-(4-cyanobenzyl)piperidin-4-yl)-5-(4-(4-fluorophenoxy)piperidine-1-carbonyl)benzofuran-2-carboxamide] had an EC50 of under 100 nM.

Compound `COc1ccc(CN2CCC(NC(=O)c3cc4cc(NC(=O)C5CCN(c6ccc(C#N)cc6)CC5)ccc4o3)CC2)cc1` [Compound 6-21, 1-(4-cyanophenyl)-N-(2-(1-(4-methoxybenzyl)piperidin-4-ylcarbamoyl)benzofuran-5-yl)piperidine-4-carboxamide] had an EC50 of under 100 nM.

Regarding `N#Cc1ccc(N2CCC(C(=O)Nc3ccc4oc(C(=O)N5CCC(Oc6ccc(C(F)(F)F)cc6)CC5)cc4c3)CC2)cc1` [Compound 6-22, 1-(4-cyanophenyl)-N-(2-(4-(4-(trifluoromethyl)phenoxy)piperidine-1-carbonyl)benzofuran-5-yl)piperidine-4-carboxamide], the EC50 was under 100 nM.

For the compound `COc1ccc(CN2CCC(NC(=O)c3cc4cc(NC(=O)c5ccc(Oc6ccc(F)cc6)cc5)ccc4o3)CC2)cc1` [Compound 6-23, 5-(4-(4-fluorophenoxy)benzamido)-N-(1-(4-methoxybenzyl)piperidin-4-yl)benzofuran-2-carboxamide], the EC50 was in the range of 100 to 1000 nM.

`O=C(Nc1ccc2oc(C(=O)N3CCC(Oc4ccc(C(F)(F)F)cc4)CC3)cc2c1)c1ccc(Oc2ccc(F)cc2)cc1` [Compound 6-24, 4-(4-fluorophenoxy)-N-(2-(4-(4-(trifluoromethyl)phenoxy)piperidine-1-carbonyl)benzofuran-5-yl)benzamide] displayed an EC50 of under 100 nM.

The compound `COc1ccc(CN2CCC(NC(=O)c3cc4cc(C(=O)N5CCC(Oc6ccc(C(F)(F)F)cc6)CC5)ccc4o3)CC2)cc1` [Compound 6-25, N-(1-(4-methoxybenzyl)piperidin-4-yl)-5-(4-(4-(trifluoromethyl)phenoxy)piperidine-1-carbonyl) benzofuran-2-carboxamide] yielded an EC50 of under 100 nM.

`O=C(Nc1ccc(Oc2ccc(F)cc2)nc1)c1cc2cc(C(=O)N3CCC(Oc4ccc(C(F)(F)F)cc4)CC3)ccc2o1` [Compound 6-26, N-(6-(4-fluorophenoxy)pyridin-3-yl)-5-(4-(4-(trifluoromethyl)phenoxy)piperidine-1-carbonyl) benzofuran-2-carboxamide] registered an EC50 of under 100 nM.

As to `N#Cc1ccc(CN2CCC(NC(=O)c3cc4cc(CN5CCC(Oc6ccc(C(F)(F)F)cc6)CC5)ccc4o3)CC2)cc1` [Compound 6-27, N-(1-(4-cyanobenzyl)piperidin-4-yl)-5-((4-(4-(trifluoromethyl)phenoxy)piperidin-1-yl)methyl) benzofuran-2-carboxamide], the EC50 is under 100 nM.

On to `O=C(NC1CCN(Cc2cc(F)cc(F)c2)CC1)c1cc2cc(CN3CCC(Oc4ccc(C(F)(F)F)cc4)CC3)ccc2o1` [Compound 6-28, N-(1-(3,5-difluorobenzyl)piperidin-4-yl)-5-((4-(4-(trifluoromethyl)phenoxy)piperidin-1-yl)methyl) benzofuran-2-carboxamide], for which the 50% effective concentration (EC50) was under 100 nM.

`O=C(Nc1ccc(Oc2ccc(F)cc2)nc1)c1cc2cc(CN3CCC(Oc4ccc(C(F)(F)F)cc4)CC3)ccc2o1` [Compound 6-29, N-(6-(4-fluorophenoxy)pyridin-3-yl)-5-((4-(4-(trifluoromethyl)phenoxy)piperidin-1-yl)methyl) benzofuran-2-carboxamide] registered an EC50 of under 100 nM.

In the case of `COc1ccc(CN2CCC(C(=O)Nc3ccc4oc(C(=O)NC5CCN(Cc6ccc(C#N)cc6)CC5)cc4c3)CC2)cc1` [Compound 6-40, N-(2-(1-(4-cyanobenzyl)piperidin-4-ylcarbamoyl)benzofuran-5-yl)-1-(4-methoxybenzyl)piperidine-4-carboxamide], the EC50 was 1000 to 10000 nM.
